In patent US20260055161A1, “PSCA CAR-T CELLS” (Regeneron Pharmaceuticals, Inc., priority 2018, published 2026):

Key:
[1] = system: cells; assay: AP1903 amount needed in vitro for effective signaling of cells; type: cell-based
[2] = healthy volunteers; cited from earlier work
[3] = system: serum cytokines and chemokines (IP-10, TNF-α, MCP-1, MIP-1α, MIP-1β); assay: peripheral cytokine profiles over time; type: in vivo, human
Protocol: Cohort 3 (1.25×10^6 cells/kg) was the initial starting cohort for cell dose escalation decisions in Part 1 when PSCA CAR-T cells are administered with rimiducid. Cohorts of 3 subjects were treated with escalating doses of PSCA CAR-T cells on Day 0 with a fixed, single dose of rimiducid (0.4 mg/kg) on Day 7. The doses of PSCA CAR-T cells are detailed in FIG. 8.

[4] = system: peripheral lymphocytes; details: 1 patient with increased IL-7 and IL-15 levels after lymphodepletion
Protocol: FIG. 8 provides a table showing patient demographics and clinical characteristics. *Cytoxan 1 g/m^2 by IV infusion on Day −3; † PSCA (copies per 10^6 copies hACTB) was measured at screening.

| Structure (SMILES) | amount needed in vitro for effective signaling of cells [1] [nM] | amount needed for effective signaling, equivalent ([1]; MW: 1412 Da) [µg/L] | safety [2] | serum cytokines (IP-10, TNF-α) ([3]; 8 patients that received rimiducid after CAR-T cells) | chemokine levels (MCP-1, MIP-1α, MIP-1β) ([3]; many patients, after rim infusion) | peripheral lymphocyte count, of the starting level [4] [%] |
| --- | --- | --- | --- | --- | --- | --- |
| CC[C@H](C(=O)N1CCCC[C@H]1C(=O)O[C@H](CCc1ccc(OC)c(OC)c1)c1cccc(OCC(=O)NCCNC(=O)COc2cccc([C@@H](CCc3ccc(OC)c(OC)c3)OC(=O)[C@@H]3CCCCN3C(=O)[C@@H](CC)c3cc(OC)c(OC)c(OC)c3)c2)c1)c1cc(OC)c(OC)c(OC)c1 (relative stereo) [rimiducid, 2-Piperidinecarboxylic acid, 1-[(2S)-1-oxo-2-(3,4,5-trimethoxyphenyl)butyl]-, 1,2-ethanediylbis[imino(2-oxo-2,1-ethanediyl)oxy-3,1-phenylene[(1R)-3-(3,4-dimethoxyphenyl)propylidene]]ester, [2S-[1(R*),2R*[S*[S*[1(R*),2R*]]]]]-(9C1)] | 10 to 100 | 14 to 140 | safe | all had elevated cytokines (IP-10, TNF-α) correlated with cell expansion | Increased chemokine levels |  |
| O=P1(N(CCCl)CCCl)NCCCO1 (stereo not drawn) [cyclophosphamide] |  |  |  |  |  | 31 |
